Reference: EPA's ToxValDB 9.5 (doi:10.2903/j.efsa.2012.2921)
Where “and” joins values, the source holds several entries; their conditions need not be identical. Equal values may be shown once.

Key:
[1] = system: Anas platyrhynchos
[2] = system: Pimephales promelas; conditions: chronic/long-term; duration: 33 days; growth
[3] = system: Oncorhynchus mykiss; conditions: acute; duration: 96 hours; mortality
[4] = system: Colinus virginianus
[5] = system: Mus musculus; conditions: no effects
[6] = system: Apis mellifera; conditions: acute, mortality
[7] = system: Daphnia magna; conditions: chronic/long-term; duration: 21 days; reproduction
[8] = system: Bibionidae; conditions: chronic/long-term; duration: 28 days
[9] = system: Folsomia candida; conditions: chronic/long-term
[10] = system: Tagia sp.; conditions: acute; duration: 14 days; mortality
[11] = system: Oryctolagus sp.; conditions: reproduction developmental; no effects
[12] = system: Rattus norvegicus; conditions: for NOAEL: no effects
[13] = system: Canidae; conditions: chronic; duration: 1 years; oral; Dog Other; no effects
[14] = subchronic, duration: 90 days, oral

In the case of `CCCCCCCCc1c(CC)nc2ncnn2c1N` [Ametoctradin], the LD50 ([1]; acute, oral, unspecified, mortality) was > 2000 mg/kg-day, the NOEC ([1]; reproductive) was ≥ 188 mg/kg-day and the LC50 ([1]; short-term, oral, feed, mortality) was > 1550 mg/kg-day. For the same compound, the NOEC [2] was 0.048 mg/L, the LC50 [3] was > 0.0646 µg/mL and the LC50 ([4]; acute, oral, diet, mortality) was > 758 mg/kg-day. The LD50 ([4]; acute, oral, mortality) was > 2000 mg/kg-day, the NOEC ([4]; reproduction developmental) was ≥ 115 mg/kg-day and the NOAEL ([5]; chronic, duration: 18 months) was 1100 mg/kg-day. For the same compound, the NOAEL [5, 14] was 1120 mg/kg-day, the LD50 ([6]; dermal) was > 100 µg/piece and the LD50 ([6]; oral, unspecified) was > 112 µg/piece. The NOEC [7] was 0.044 mg/L, the NOEC [8] was 222 mg/kg and the NOEC [9] was ≥ 268 mg/kg. For the same compound, the LC50 [10] was > 1000 mg/kg, the NOAEL [11] was 1000 mg/kg-day and the LD50 ([12]; acute, oral, mortality) was > 2000 mg/kg-day. The NOAEL ([12]; chronic, duration: 2 years) was 871 mg/kg-day, the NOAEL ([12]; reproduction developmental) was ≥ 939 mg/kg-day and 1000 mg/kg-day and the NOAEL [12, 14] was 1080 mg/kg-day. It also gave an NOAEL [13] of 848 mg/kg-day.
